# Assay results reported in PMC6895180 (Nature Communications, 2019).
# “And” between values parts separate entries of the source, which are not always exact repeats. Identical values can stand only once.
# Assays:
# T. b. brucei BS221 = test: Susceptibility assay, BS221 cells; type: cell-based, Trypanosoma brucei brucei; settings: for IC50: single determinations
# Method: (§1) Susceptibility assays with NY-SM[51], BS221[48] and TbAT1-KO[48] (derived from BS221) cells were performed using 10 concentrations of a 4-fold compound dilution series starting at 64 µM. Parasites were seeded at 4 × 10^3 parasites per well and exposed to drug compound for 72 h, after which resazurin (final concentration of 10 µg mL^−1) was added to the plates. Fluorescence intensities were determined after 6 h.
# T. brucei NY-SM cells = test: RNA quantification (total RNA, RT-qPCR of SL-RNA, 18S rRNA, TERT); type: cell-based, Trypanosoma brucei; settings: for RNA Yield: RNA Content: Control 1.00; for RNA Yield: 18S rRNA / RNA Yield: SL-RNA / RNA Yield: TERT: Control about 1
# Method: After 24 h, the cells were harvested and washed with PBS. […] RNA was extracted using the QIAamp RNA Blood Mini Kit (Qiagen). Total RNA yields were determined using both Nanodrop 2000 spectrometry and Qubit fluorimetric RNA content analysis. Additionally, specific transcripts in the RNA pool were quantified using RT-qPCR targeting the SL-RNA, 18S rRNA and transcripts encoding the telomerase reverse transcriptase (TERT)[28],[56]. A list of primers used is provided in the Supplementary Methods section of the Supplementary Information.
# [1] = test system: RNAi clones targeting FLA1BP, EndoG, RHS5, BCKDHA in T. brucei NY-SM cells; test: Susceptibility of RNAi clones targeting FLA1BP, EndoG, RHS5, BCKDHA; type: cell-based, Trypanosoma brucei brucei
# Method: as §1
# The RNAi library[54] was induced for 68 h by the addition of 1 µg mL^−1 of tetracycline. After induction, the cells were exposed to different concentrations of 9 (corresponding to the IC98, IC99). Cells were maintained until a recovery of the resistant population was observed. Genomic DNA of the resistant parasite population was isolated, and the RNAi inserts were identified by PCR amplification, followed by cloning in highly competent Escherichia coli and sequencing. To validate the involvement of the identified genes, the RNAi inserts were back-cloned into a p2T7Bern vector[54] and transformed into NY-SM cells (the background strain of the RNAi library). The transformed NY-SM cells were cloned by limiting dilution. Two clones of each RNAi insert were exposed to tetracycline to induce the RNAi phenotype and subsequently subjected to different concentrations of 9 to determine the susceptibility of induced versus non-induced clones.
# Drug susceptibility assays with induced clones were performed as described above for NY-SM cells, with an initial induction period of 68 h with 1 µg mL^−1 tetracycline prior to the start of the drug susceptibility assay.
# Supplementary Figure 6: Drug sensitivity of RNAi clones
# Supplementary Figure 6: Drug susceptibility of RNAi clones targeting (A) FLA1BP (FLA1 binding protein), (B) EndoG (Endonuclease G), (C) RHS5 (Retrotransposon Hotspotprotein 5), (D) BCKDHA (branched chain keto acid dehydrogenase, i.e. 2-oxoisovalerate dehydrogenase). Results are expressed as the mean IC50 (µM) ± SEM and are based on two independent experiments with two biological replicates. + = tetracycline-induced clones. - = non-induced clones. All experiments were performed with two independent RNAi clones (A and B). Source data are provided as a Source Data file. […]
structure (smiles),measurement,setting,value
"Nc1ncnc2c1ccn2[C@@H]1O[C@H](CO)C[C@H]1O [Compound 9, 3’-deoxytubercidin]",Inhibition (%),"T. b. brucei BS221; BS221, 0.015625 µM",98% and 95%
same,Inhibition (%),"T. b. brucei BS221; BS221, 0.25 µM",98%
same,Inhibition (%),"T. b. brucei BS221; BS221, 1 µM",98%
same,Inhibition (%),"T. b. brucei BS221; BS221, 4 µM",98%
same,Inhibition (%),"T. b. brucei BS221; BS221, 16 µM",98%
same,inhibition at 0.000244141 µM,"T. b. brucei BS221; Trypanosoma brucei, BS221, 0.000244141 µM",0%
same,inhibition at 0.000976563 µM,"T. b. brucei BS221; Trypanosoma brucei, BS221, 0.000976563 µM",0%
same,inhibition at 0.015625 µM,"T. b. brucei BS221; Trypanosoma brucei, BS221, 0.015625 µM",97%
same,inhibition at 0.0625 µM,"T. b. brucei BS221; Trypanosoma brucei, BS221, 0.0625 µM",99%
same,inhibition at 0.25 µM,"T. b. brucei BS221; Trypanosoma brucei, BS221, 0.25 µM",99%
same,inhibition at 1 µM,"T. b. brucei BS221; Trypanosoma brucei, BS221, 1 µM",99%
same,inhibition at 4 µM,"T. b. brucei BS221; Trypanosoma brucei, BS221, 4 µM",100%
same,inhibition at 16 µM,"T. b. brucei BS221; Trypanosoma brucei, BS221, 16 µM",99%
same,inhibition at 64 µM,"T. b. brucei BS221; Trypanosoma brucei, BS221, 64 µM",99%
same,IC50,T. b. brucei BS221; Trypanosoma brucei,6.8 nM
same,EC50,"T. b. brucei BS221; Trypanosoma brucei, BS221, mean and SEM, n = 2, read-out: EC50, parental line of AT1-KO",6.4 ± 0.4 nM
same,IC50,T. b. brucei BS221,6.1 nM and 5.4 nM and 7.3 nM
same,RNA Yield: RNA Content,T. brucei NY-SM cells; 1.4 nM,1.35 and 1.46
same,RNA Yield: 18S rRNA,T. brucei NY-SM cells; 1.4 nM,0.9222 and 0.9324 and 0.9996 and 1.001
same,RNA Yield: SL-RNA,T. brucei NY-SM cells; 1.4 nM,0.789 and 0.7785 and 0.978 and 0.9385
same,RNA Yield: TERT,T. brucei NY-SM cells; 1.4 nM,0.9232 and 0.9182 and 1.015 and 1.009
same,RNA Yield: RNA Content,T. brucei NY-SM cells; 3.5 nM,0.81 and 1.07
same,RNA Yield: 18S rRNA,T. brucei NY-SM cells; 3.5 nM,0.9119 and 1.014 and 1.009 and 1.044
same,RNA Yield: SL-RNA,T. brucei NY-SM cells; 3.5 nM,0.7939 and 0.7953 and 1.021 and 1.016
same,RNA Yield: TERT,T. brucei NY-SM cells; 3.5 nM,0.9429 and 0.9282 and 1.046 and 1.035
same,RNA Yield: RNA Content,T. brucei NY-SM cells; 7 nM,0.50 and 0.86
same,RNA Yield: 18S rRNA,T. brucei NY-SM cells; 7 nM,1.036 and 1.037
same,RNA Yield: SL-RNA,T. brucei NY-SM cells; 7 nM,1.052 and 1.049
same,RNA Yield: TERT,T. brucei NY-SM cells; 7 nM,1.046 and 1.042
same,impact on RNA synthesis,"T. brucei NY-SM cells; 24 h, various concentrations",absence of a major impact on the total RNA pool and the levels of specific transcripts
same,"susceptibility of tetracycline-induced versus non-induced clones, remaining four constructs",[1],no significant differences
same,IC50,[1]; BCKDHA RNAi clone A +,7.45 nM
same,IC50,[1]; BCKDHA RNAi clone A -,7.58 nM and 7.81 nM
same,IC50,[1]; BCKDHA RNAi clone B -,7.47 nM
same,IC50,[1]; EndoG RNAi clone A +,7.75 nM
same,IC50,[1]; EndoG RNAi clone A -,8.23 nM and 7.93 nM and 7.81 nM
same,IC50,[1]; EndoG RNAi clone B +,7.63 nM and 7.94 nM and 8.26 nM
same,IC50,[1]; EndoG RNAi clone B -,7.81 nM
same,IC50,[1]; FLA1BP RNAi clone A -,6.66 nM
same,IC50,[1]; FLA1BP RNAi clone B +,7.81 nM and 7.59 nM
same,IC50,[1]; FLA1BP RNAi clone B -,7.64 nM and 7.01 nM
same,IC50,[1]; RHS5 RNAi clone A +,8.05 nM and 7.59 nM
same,IC50,[1]; RHS5 RNAi clone A -,7.93 nM
same,IC50,[1]; RHS5 RNAi clone B +,8.37 nM and 7.06 nM
same,IC50,"[1]; Trypanosoma brucei, BCKDHA RNAi clone A +",7.99 nM
same,IC50,"[1]; Trypanosoma brucei, BCKDHA RNAi clone A -",7.98 nM
same,IC50,"[1]; Trypanosoma brucei, BCKDHA RNAi clone B +",8.39 nM
same,IC50,"[1]; Trypanosoma brucei, BCKDHA RNAi clone B -",7.41 nM
same,IC50,"[1]; Trypanosoma brucei, EndoG RNAi clone A +",8.04 nM
same,IC50,"[1]; Trypanosoma brucei, EndoG RNAi clone A -",8.17 nM
same,IC50,"[1]; Trypanosoma brucei, EndoG RNAi clone B +",8.04 nM
same,IC50,"[1]; Trypanosoma brucei, EndoG RNAi clone B -",7.92 nM
same,IC50,"[1]; Trypanosoma brucei, FLA1BP RNAi clone A +",8.1 nM
same,IC50,"[1]; Trypanosoma brucei, FLA1BP RNAi clone A -",7.7 nM
same,IC50,"[1]; Trypanosoma brucei, FLA1BP RNAi clone B +",8.04 nM
same,IC50,"[1]; Trypanosoma brucei, FLA1BP RNAi clone B -",7.46 nM
same,IC50,"[1]; Trypanosoma brucei, RHS5 RNAi clone A +",8.1 nM
same,IC50,"[1]; Trypanosoma brucei, RHS5 RNAi clone A -",7.87 nM
same,IC50,"[1]; Trypanosoma brucei, RHS5 RNAi clone B +",8.3 nM
same,IC50,"[1]; Trypanosoma brucei, RHS5 RNAi clone B -",7.76 nM
